Laboratory results: US20050239751A1, “Heterocyclic anti-viral compounds comprising metabolizable moieties and their uses” (Rigel Pharmaceuticals, Inc., priority 2004, published 2005)

System: HCV replicon in 5-2 Luc replicon-comprising cells
Assay: HCV replicon assay (luciferase; HEPC_REPLICON-LUC)
Assay type: cell-based, Hepatitis C virus
Conditions: Hepatitis C virus; Tables 3-12; 50% reduction in luciferase emission, 5-2 Luc replicon cells; read-out: Replicon (IC50)
Excerpt: In one embodiment, the inhibitory activity of the metabolically active agent of the prodrug can be confirmed in a replicon assay that assesses the ability of a test compound to block or inhibit HCV replication in replicon cells. One example of a suitable replicon assay is the liver cell-line Huh 7-based replicon assay described in Lohmann et al., 1999, Science 285:110-113. A specific example of this replicon assay which utilizes luciferase translation is provided in the Examples Section. In one embodiment of this assay, the amount of test prodrug that yields a 50% reduction in translation as compared to a control cell (IC50) may be determined.
The inhibitory activity of certain prodrugs of the invention, which may inhibit HCV translation or replication prior to metablism and/or are metabolized into active agents, was confirmed using an HCV replicon assay. The HCV replicon can include such features as the HCV 5′ untranslated region including the HCV IRES, the HCV 3′ untranslated region, selected HCV genes encoding HCV polypeptides, selectable markers, and a reporter gene such as luciferase, GFP, etc. In the assay, actively dividing 5-2 Luc replicon-comprising cells (obtained from Ralf Bartenschlager; see Lohmann et al., 1999, Science 285:110-113) were seeded at a density of between about 5,000 and 7,500 cells/well onto 96 well plates (about 90 µl of cells per well) and incubated at 37° C. and 5% CO2 for 24 hours. Then, the test prodrug (in a volume of about 10 PI) was added to the wells at various concentrations and the cells were incubated for an additional 24-48 hours before luciferase assay. The media was aspirated from each well and Bright-Glo (Promega, Madison, WI) luciferase assay reagents were added to each well according to the manufacturer's instructions. Briefly, the BrightGlo reagent was diluted 1:1 with PBS and 100 µl of diluted reagent was added to each well. After 5 min of incubation at room temperature, luciferin emission was quantified with a luminometer. In this assay, the amount of test prodrug that yielded a 50% reduction in luciferase emission (IC50) was determined. This IC50 value may represent the antiviral activity of the prodrug itself, the activity of prodrug transformed into its active metabolized form, or a combination of the two.
In TABLES 3 through 12, a value of “+” indicates an IC50 of 10 μM or less in the specified assay; a value of “−” indicates an IC50 of greater than 10 μM in the specified assay.

`COC(=O)C(Cl)(Cl)C(=O)Nc1cccc(-c2cc(-c3c(F)cccc3C(F)(F)F)no2)c1` [Cpd. 30, 2′,2′-dichloro-2′-(methoxycarbonyl)-N-[3-[3-(2-fluoro-6-trifluoromethylphenyl)-5-isoxazoyl]phenyl] acetamide] and `COC(=O)C(Cl)(Cl)C(=O)Nc1cccc(-c2cc(-c3c(C4CC4)cccc3C(F)(F)F)no2)c1` [Cpd. 26, 2′,2′-dichloro-2′-(methoxycarbonyl)-N-[3-[3-(2-cyclopropyl-6-trifluoromethylphenyl]5-isoxazoyl]phenyl] acetamide] cannot be ordered by IC50: no more than 10 µM for the first, no more than 10 µM for the second.

`Cc1oc(=O)oc1CN(C(=O)C(Cl)Cl)c1cccc(-c2cc(-c3c(Cl)cccc3Cl)no2)c1` [compound 901, 2,2-dichloro-N-[3′-[3′-(2′,6′-dichlorophenyl)-5′-isoxazoyl]phenyl]N-[(5-methyl-1,3-dioxolene-2-one4-yl)methylene] acetamide] and `CCc1oc(=O)oc1CN(C(=O)C(Cl)Cl)c1cccc(-c2cc(-c3c(Cl)cccc3Cl)no2)c1` [Cpd. 40] cannot be ordered by IC50: no more than 10 µM for the first, no more than 10 µM for the second.

`CC(C)c1oc(=O)oc1CN(C(=O)C(Cl)Cl)c1cccc(-c2cc(-c3c(Cl)ccnc3N(C)C)no2)c1` [Cpd. 35] and `CC(C)c1oc(=O)oc1CN(C(=O)C(Cl)Cl)c1cccc(-c2cc(-c3c(Cl)cccc3Cl)no2)c1` [Cpd. 34, 2,2-dichloro-N-[3′-[3′-(2′,6′-dichlorophenyl)-5′-isoxazoyl]phenyl]-N-[(5-isopropyl-1,3-dioxolene-2-one4-yl)methylene] acetamide] cannot be ordered by IC50: no more than 10 µM for the first, no more than 10 µM for the second.

`CCOC(=O)c1oc(=O)oc1CN(C(=O)C(Cl)Cl)c1cccc(-c2cc(-c3c(Cl)cccc3Cl)no2)c1` [Cpd. 44] and `CC(C)(C)c1oc(=O)oc1CN(C(=O)C(Cl)Cl)c1cccc(-c2cc(-c3c(Cl)cccc3Cl)no2)c1` [compound 1007, 2,2-dichloro-N-[3′-[3′-(2′,6′-dichlorophenyl)-5′-isoxazoyl]phenyl]-N-[(5-t-butyl-1,3-dioxolene-2-one4yl)methylene]acetamide] cannot be ordered by IC50: greater than 10 µM for the first, no more than 10 µM for the second.

`CC(C)(C)OC(=O)C(Cl)(Cl)C(=O)Nc1cccc(-c2cc(-c3c(Cl)cccc3Cl)no2)c1` [Cpd. 15] and `CC(C)(C)COC(=O)C(Cl)(Cl)C(=O)Nc1cccc(-c2cc(-c3c(Cl)cccc3Cl)no2)c1` [Cpd. 14] cannot be ordered by IC50: no more than 10 µM for the first, no more than 10 µM for the second.

`COC(=O)C(Cl)(Cl)C(=O)Nc1cccc(-c2cc(-c3c(Cl)ccnc3N(C)C)no2)c1` [Cpd. 28] and `COC(=O)C(Cl)(Cl)C(=O)Nc1cccc(-c2cc(-c3c(Cl)cccc3OC)no2)c1` [Cpd. 27, 2′,2′-dichloro-2′-(methoxycarbonyl)-N-[3-[3-(2-chloro-6-methoxyphenyl]5-isoxazoyl]phenyl] acetamide] cannot be ordered by IC50: no more than 10 µM for the first, no more than 10 µM for the second.

`CC(C)c1oc(=O)oc1CN(C(=O)C(Cl)Cl)c1ccnc(-c2cc(-c3c(Cl)cccc3Cl)no2)c1` [Cpd. 42, 2,2-dichloro-N-[2′-[3′-(2′,6′-dichlorophenyl)-5′-isoxazoyl](4-pyridyl)]N-[(5-i-propyl-1,3-dioxolene-2-one4-yl)methylene] acetamide] and `Cc1oc(=O)oc1CN(C(=O)C(Cl)Cl)c1ccnc(-c2cc(-c3c(Cl)cccc3Cl)no2)c1` [Cpd. 41, 2,2-dichloro-N-[2′-[3′-(2′,6′-dichlorophenyl)-5′-isoxazoyl](4-pyridyl)]-N-[(5-methyl-1,3-dioxolene-2-one4-yl)methylene] acetamide] cannot be ordered by IC50: no more than 10 µM for the first, no more than 10 µM for the second.

`COc1cccc(Cl)c1-c1cc(-c2cccc(N(Cc3oc(=O)oc3C)C(=O)C(Cl)Cl)c2)on1` [Cpd. 31, 2,2-dichloro-N-[3′-[3′-(2′-chloro-6′-methoxyphenyl)-5′-isoxazoyl]phenyl]-N-[(5-methyl-1,3-dioxolene-2-one-4-yl)methylene] acetamide] and `CC(=O)C(Cl)(Cl)C(=O)Nc1cccc(-c2cc(-c3c(Cl)cccc3Cl)no2)c1` [Cpd. 10] cannot be ordered by IC50: no more than 10 µM for the first, greater than 10 µM for the second.

`CC(C)(C)OC(=O)C(Cl)(Cl)C(=O)Nc1cccc(-c2cc(-c3c(N4CCOCC4)ccnc3Cl)no2)c1` [compound 56] and `CCOC(=O)C(Cl)(Cl)C(=O)Nc1cccc(-c2cc(-c3c(N4CCOCC4)ccnc3Cl)no2)c1` [compound 54] cannot be ordered by IC50: greater than 10 µM for the first, greater than 10 µM for the second.

`CC1(C)C2CCC1(C)C(OC(=O)C(Cl)(Cl)C(=O)Nc1cccc(-c3cc(-c4c(Cl)cccc4Cl)no3)c1)C2` [Cpd. 9, 2′,2′-dichloro-2′-[(1S)-endo-borneyloxycarbonyl]-N-[3-[3-(2,6-dichlorophenyl)-5-isoxazoyl]phenyl] acetamide] and `O=C(Nc1cccc(-c2cc(-c3c(Cl)cccc3Cl)no2)c1)C(Cl)(Cl)C(=O)OC1CCCCC1` [Cpd. 13, 2′,2′-dichloro-2′-(cyclohexyloxycarbony)-N-[3-[3-(2,6-dichlorophenyl)-5-isoxazoyl]phenyl] acetamide] cannot be ordered by IC50: no more than 10 µM for the first, no more than 10 µM for the second.

`O=C(Nc1cccc(-c2cc(-c3c(N4CCOCC4)ccnc3Cl)no2)c1)C(Cl)(Cl)C(=O)OC1CCCCC1` [compound 52] and `O=C(Nc1ccnc(-c2cc(-c3c(Cl)cccc3Cl)no2)c1)C(Cl)(Cl)C(=O)OC1CCCCC1` [compound 23] cannot be ordered by IC50: greater than 10 µM for the first, no more than 10 µM for the second.

Same assay, conditions: Table 15; read-out: Replicon (IC50)

“2′,2′-Dichloro-N-[3-[3-(2,6-dichlorophenyl)-5-isoxazolyl]phenyl]-N-[2-(4-methoxybenzoyl)ethyl] Acetamide [Cpd. 103a]” and “2′,2′-Dichloro-N-[3-[3-(2,6-dichlorophenyl)-5-isoxazolyl]phenyl]-N-[2-(benzoyl)ethyl] Acetamide [Cpd. 102a]” cannot be ordered by IC50: no more than 10 µM for the first, no more than 10 µM for the second.

“2′,2′-Dichloro-N-[3-[3-(2,6-dichlorophenyl)-5-isoxazolyl]-4-(pyridyl)]-N-[2-(4-fluorobenzoyl)ethyl] Acetamide [126a]” and “2′,2′-Dichloro-N-[3-[3-(2-chloro-6-tbutoxycarbonylphenyl)-5-isoxazolyl]phenyl]N-[2-(4-fluorobenzoyl)ethyl] Acetamide [Cpd. 128a]” cannot be ordered by IC50: no more than 10 µM for the first, no more than 10 µM for the second.

`O=C(CCCN(C(=O)C(Cl)Cl)c1cccc(-c2cc(-c3c(Cl)cccc3Cl)no2)c1)c1ccccc1` [107a] and “2′,2′-Dichloro-N-[3-[3-[2-chloro-6-(N′-acetyl-4piperdinyloxy)phenyl]-5-isoxazolyl]phenyl]-N-[2-(4-fluorobenzoyl)ethyl] Acetamide [Cpd. 127a]” cannot be ordered by IC50: no more than 10 µM for the first, no more than 10 µM for the second.

“2′,2′-Dichloro-N-[3-[3-(2-chloro-6-methoxycarbonylphenyl)-5-isoxazolyl]phenyl]-N-[2-(4-fluorobenzoyl)ethyl] Acetamide [Cpd. 133a]” and “2′,2′-Dichloro-N-[3-[3-(2-chloro-6-hydroxycarbonylphenyl)-5-isoxazolyl]phenyl]-N-[2-(4-fluorobenzoyl)ethyl] Acetamide [Cpd. 129a]” cannot be ordered by IC50: no more than 10 µM for the first, no more than 10 µM for the second.

`O=C(CCN(C(=O)C(Cl)Cl)c1cccc(-c2cc(-c3c(Cl)cccc3Cl)no2)c1)c1ccc(Cl)cc1` [Cpd. 104a, 2′,2′-Dichloro-N-[3-[3-(2,6-dichlorophenyl)-5-isoxazolyl]phenyl]-N-[2-(4-chlorobenzoyl)ethyl] Acetamide] and “2′,2′-Dichloro-N-[3-[3-(2-chloro-6-methoxyphenyl)-5-isoxazolyl]phenyl]-N-[2-(4-fluorobenzoyl)ethyl] Acetamide [Cpd. 113a]” cannot be ordered by IC50: no more than 10 µM for the first, no more than 10 µM for the second.

Same assay, conditions: Tables 3-12; 50% reduction in luciferase emission, 5-2 Luc replicon cells; read-out: Replicon (IC50)

“2′-(diethoxyphosphonyl)-2′,2′-difluoro-N-[3-[3-(2,6-dichlorophenyl)-5-isoxazoyl]phenyl] acetamide [Cpd. 3]” and “2′-chloro-2′-(diethoxyphosphonyl)-2-fluoro-N-[3-[3-(2,6-dichlorophenyl)-5-isoxazoyl]phenyl] acetamide [Cpd. 2]” cannot be ordered by IC50: greater than 10 µM for the first, greater than 10 µM for the second.

“2′,2′-dichloro-2′-(diisopropoxyphosphonyl)-N-[3-[3-(2,6-dichlorophenyl)-5-isoxazoyl]phenyl] acetamide [Cpd. 4]” and “2′,2′-dichloro-2′-[(1R, 2S, 5Rkmenthyloxycarbonyl]-N-[3-[3-(2,6-dichlorophenyl)-5-isoxazoyl]phenyl] acetamide [Cpd. 11]” cannot be ordered by IC50: no more than 10 µM for the first, no more than 10 µM for the second.

“2′,2′-dichloro-2′-(benzyloxycarbonyl)-N-[3-[3-(2,6-dichlorophenyl)-5-isoxazoyl]phenyl] acetamide [Cpd. 17]” and `CCOP(=O)(OCC)C(Cl)(Cl)C(=O)Nc1cccc(-c2cc(-c3ccccc3C(F)(F)F)no2)c1` [Cpd. 5] cannot be ordered by IC50: no more than 10 µM for the first, no more than 10 µM for the second.

Work on “2′,2′-dichloro-2′-(diethoxyphosphonyl)-N-[3-[3-(2-fluoro-6-trifluoromethylphenyl)-5-isoxazoyl]phenyl] acetamide [Cpd. 6]” yielded an IC50 of no more than 10 µM.
